The results in this text go back to patent publication US20150164833A1, “NUTRITIONAL COMPOSITION CONTAINING A NEUROLOGIC COMPONENT OF URSOLIC ACID AND USES THEREOF” (MEAD JOHNSON NUTRITION COMPANY, priority 2013, published 2015).

The subject of the assay is human adipose-derived stem cells (hADSCs). Description: Neurogenesis (neuronal differentiation) of hADSCs in serum-free neuronal differentiation medium, phase contrast microscopy. The format is cell-based. Here is the method: This example describes the neurogenesis of hADSCs by ursolic acid as compared to DHA (positive control) and hADSCs cultured in the absence of either ursolic acid and DHA (negative control). Ursolic acid was purchased from Sigma-Aldrich (Cat. No. U6753) and diluted in 95% ethanol to a concentration of […], giving a clear faint yellow stick solution that was then stored at −20° C.
hADSCs were purchased from Invitrogen®, also known as Life Technologies, of Carlsbad, Calif., U.S.A., and were cultured as near confluent monolayers in 100 mm culture plates within a maintenance medium consisting of Complete MesenPro RS™ medium with growth supplement and L-glutamine, also obtained from Invitrogen®. The process of culturing, passage, and seeding the hADSCs is described below. The cells were then subjected to removal and reseeded at a density of 0.5-1×10^4 cells/mL onto a 24-well culture plate with poly-L-ornithine and bovine plasma fibronectin coating. The culture medium is the same as the aforementioned maintenance medium. Three days after seeding, the culture medium was changed to a neuronal differentiation medium.
The subculture of hADSCs was performed when cell culture reached confluence. […]

As to `C[C@H]1[C@H](C)CC[C@]2(C(=O)O)CC[C@]3(C)C(=CC[C@@H]4[C@@]5(C)CC[C@H](O)C(C)(C)[C@@H]5CC[C@]43C)[C@H]12` [ursolic acid, 3-beta-3-hydroxy-urs-12-ene-28-oic-acid], the “neurogenesis of hADSCs (cells undergoing neurogenesis)” value (30-120 μg/mL ursolic acid, phase contrast microscopy at 24, 48 and 96 hours) is reported as “A large percentage of cells underwent neurogenesis”. The “neuronal morphology of hADSCs” value (ursolic acid at 60 μg/mL, phase contrast microscopy, FIG. 1C) was “neuronal morphological changes and neurite outgrowth”.
